Assay results as given in US7157442B2, “Antibacterial compound” (Sankyo Company, Limited, priority 1999, dated 2007).
≈ marks a conversion by molar mass, not a printed value.

Key:
[1] = system: Mycobacterium avium Strain NIHJ 1605; experiment: In vitro antibacterial activity (1): minimum inhibitory concentration, broth dilution; type: cell-based; conditions: NIHJ1605, 144 h; Mycobacterium avium NIHJ 1605; Middlebrook 7H9 broth, aerobic culture at 37° C. for 6 days
[2] = system: M. tuberculosis Kato; experiment: In vitro antibacterial activity (2): MIC by broth dilution method; type: cell-based; conditions: Mycobacterium tuberculosis; Middlebrook 7H9 broth, 35° C. for 10–21 days; read-out: MICs against Mycobacterium tuberculosis, M. tuberculosis Kato
Experimental: The minimum inhibitory concentration (MICs) of the test compounds against Mycobacterium tuberculosis was determined by the broth dilution method. After the solution of a test compound in dimethyl sulfoxide (DMSO) or distilled water was diluted with 50% aqueous acetone or distilled water, each two-fold dilution of the solution was carried out with Middlebrook 7H9 broth containing 0.05% Tween 80, 0.2% dextrose and Middlebrook ADC enrichment. […] The microorganisms cultivated on Ogawa medium were suspended uniformly in Middlebrook 7H9 broth containing 0.05% Tween 80, 0.2% dextrose and Middlebrook ADC enrichment. The microorganism solution was adjusted to about 1×10^7 CFU/mL using a spectrophotometer. The resulting microorganism solution was further diluted with Middlebrook 7H9 broth containing 0.05% Tween 80, 0.2% dextrose and Middlebrook ADC enrichment (final viable cell count: about 1×10^5 CFU/mL). After mixing the diluted microorganism solution with the diluted test compound solution in the test tube, cultivation was performed at 35° C. for 10–21 days. When significant growth was found in the control test tube with no test compound, the MIC was determined as the minimum concentration of the compound at which no colony was recognized macroscopically in the test tube.

Row | Compound | MIC [1] [µg/mL] | MIC [2] [µg/mL]
1 | CO[C@H]1[C@@H](O)[C@H](n2ccc(=O)[nH]c2=O)O[C@@H]1[C@@H](O[C@H]1OC(C(=O)N[C@H]2CCCCNC2=O)=C[C@H](O)[C@@H]1O)C(N)=O [Capuramycin, capuramycin, reference compound] | 8 (≈ 14 µM) | 
2 | CO[C@H]1[C@@H](O)[C@H](n2ccc(=O)[nH]c2=O)O[C@@H]1[C@@H](O[C@H]1OC(C(=O)Nc2ccc(F)c(F)c2)=C[C@H](O)[C@@H]1O)C(N)=O [Exemplification Compound No. 3712] | 2 (≈ 3.51 µM) | 1 (≈ 1.75 µM)
